Assays:
human 5-HT2Ccys receptor = molecular target: T1, human 5-HT2Ccys receptor (Homo sapiens, UniProt P28335); assay: Two-electrode voltage-clamp recording of 5-HT-activated currents in Xenopus oocytes expressing 5-HT2Ccys; format: cell-based
T1 construct: consisting of the entire coding region of the 5-HT2C receptor; expressed in transfected cells; host or cells: Xenopus laevis oocytes injected with cRNA
T1 sequence (P28335 33-458): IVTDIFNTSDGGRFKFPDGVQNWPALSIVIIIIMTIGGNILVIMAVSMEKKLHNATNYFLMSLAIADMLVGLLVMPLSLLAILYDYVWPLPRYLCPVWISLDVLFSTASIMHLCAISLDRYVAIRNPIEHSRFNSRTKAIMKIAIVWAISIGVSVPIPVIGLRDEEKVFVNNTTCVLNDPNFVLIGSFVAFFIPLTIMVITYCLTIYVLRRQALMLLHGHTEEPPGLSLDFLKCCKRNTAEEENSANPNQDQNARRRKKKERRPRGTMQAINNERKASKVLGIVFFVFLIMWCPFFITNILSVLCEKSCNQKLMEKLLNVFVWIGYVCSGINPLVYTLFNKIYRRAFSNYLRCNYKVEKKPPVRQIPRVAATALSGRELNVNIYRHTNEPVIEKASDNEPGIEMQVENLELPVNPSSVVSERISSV

human 5-HT2Cser receptor = molecular target: T2, human 5-HT2Cser receptor (Homo sapiens, UniProt P28335); assay: Two-electrode voltage-clamp recording of 5-HT-activated currents in Xenopus oocytes expressing 5-HT2Cser; format: cell-based
T2 construct: consisting of the entire coding region of the 5-HT2C receptor; expressed in transfected cells; host or cells: Xenopus laevis oocytes injected with cRNA
T2 sequence (P28335 33-458): T1 sequence (P28335 33-458)

[1] = 1 μM PPRZ, voltage-clamp at -70 mV

Structure (SMILES): Cl.c1ccc2c(N3CCNCC3)cccc2c1 [PPRZ, 1-(1-naphthyl) piperazine HCL]
- effect on currents activated by 10 nM 5-HT (human 5-HT2Ccys receptor; [1]): suppressed
- reversibility of the effect of PPRZ on 5-HT-activated response (human 5-HT2Ccys receptor; after a 20 min wash): reversible
- effect on currents activated by 10 nM 5-HT (human 5-HT2Cser receptor; [1]): suppressed
- reversibility of the effect of PPRZ on 5-HT-activated response (human 5-HT2Cser receptor; after a 20 min wash): reversible
